These results are taken from ChEMBL document CHEMBL1145947, “Generation of bis-cationic heterocyclic inhibitors of Bacillus subtilis HPr kinase/phosphatase from a ditopic dynamic combinatorial library” (J Med Chem, 2003).

Each structure is given as a SMILES string.

Test [1] addresses T1, HPr kinase/phosphorylase (Bacillus subtilis (strain 168), UniProt O34483).
T1 sequence (O34483 whole entry): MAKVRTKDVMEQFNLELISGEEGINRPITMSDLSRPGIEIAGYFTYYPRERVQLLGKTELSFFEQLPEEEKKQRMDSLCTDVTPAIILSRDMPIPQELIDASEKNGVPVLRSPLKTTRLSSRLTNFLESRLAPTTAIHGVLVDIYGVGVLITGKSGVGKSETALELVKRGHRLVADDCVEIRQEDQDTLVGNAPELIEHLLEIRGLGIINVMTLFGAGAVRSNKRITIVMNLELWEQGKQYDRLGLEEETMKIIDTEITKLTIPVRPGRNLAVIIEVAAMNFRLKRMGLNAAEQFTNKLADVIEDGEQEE
In words: Inhibition of bifunctional enzyme HPr kinase/phosphatase from Bacillus subtilis at pH 8.0 and hill coefficient of 2.9.

Test [2] addresses T1, HPr kinase/phosphorylase. The test is described as follows: Inhibition of bifunctional enzyme HPr kinase/phosphatase from Bacillus subtilis at pH 7.0 and hill coefficient of 1.4.

What is called IC50 is the midpoint of a concentration-inhibition curve. Low readings indicate higher potency, high ones lower potency. Take `N=c1n(CC(=O)N/N=C/c2ccc(/C=N/NC(=O)Cn3c(=N)n(Cc4ccccc4)c4ccccc43)cc2)c2ccccc2n1Cc1ccccc1`: the IC50 worked out at 18 µM in test [1] and 17 µM in test [2].
